Test results taken from patent publication US4160829A, “Antibacterial 1,2,4-oxadiazolylacetamido cephalosporins” (Gist-Brocades N.V., priority 1972, dated 1979).
≈ marks a conversion by molar mass, not a printed value. Like-named read-outs stand apart in the source and are kept apart here.

Tests used:
Staph.aureus A 2000 [1] = assay: agar serial dilution test; format: cell-based, Staphylococcus aureus; conditions: Staphylococcus aureus, A2000, 24 h, agar serial dilution, 24 hours, 37° C.; read-out: minimal inhibitory concentration (MIC)
Prot.mirab. A 1200 = assay: agar serial dilution test; format: cell-based, Proteus mirabilis; conditions: Proteus mirabilis, 24 h, agar serial dilution, 24 hours, 37° C.; read-out: minimal inhibitory concentration (MIC)
Kleb.pneum. A 809 = assay: agar serial dilution test; format: cell-based, Klebsiella pneumoniae; conditions: Klebsiella pneumoniae; agar serial dilution, 24 hours, 37° C.; read-out: minimal inhibitory concentration (MIC)
Strep. faec. L 80 = assay: agar serial dilution test; format: cell-based, Streptococcus faecalis; conditions: Enterococcus faecalis; agar serial dilution, 24 hours, 37° C.; read-out: minimal inhibitory concentration (MIC)
Bac.Subt.ATCC 6633 = assay: agar serial dilution test; format: cell-based, Bacillus subtilis; conditions: Bacillus subtilis, ATCC6633, 24 h, agar serial dilution, 24 hours, 37° C.; read-out: minimal inhibitory concentration (MIC)
Staph.aureus A 321 = assay: agar serial dilution test; format: cell-based, Staphylococcus aureus; conditions: Staphylococcus aureus, A321, 24 h, agar serial dilution, 24 hours, 37° C.; read-out: minimal inhibitory concentration (MIC)
Prot.rettg. A 821 = assay: agar serial dilution test; format: cell-based, Proteus rettgeri; conditions: Providencia rettgeri, 24 h, read-out: minimal inhibitory concentration (MIC)
Staph.aureus A 2001 [2] = assay: micro serial dilution test; format: cell-based, Staphylococcus aureus; conditions: Staphylococcus aureus, A2001, 18 h, micro serial dilution (in brackets), about 18 hours, 30° C. or 37° C.; read-out: minimal inhibitory concentration (MIC)
[3] = system: Pseud.aerug. Wyeth A 1058; assay: agar serial dilution test; format: cell-based; conditions: agar serial dilution, 24 hours, 37° C.; read-out: minimal inhibitory concentration (MIC)
Esch.coli U 20 = assay: agar serial dilution test; format: cell-based, Escherichia coli; conditions: Escherichia coli, U20; agar serial dilution, 24 hours, 37° C.; read-out: minimal inhibitory concentration (MIC)
Staph.aureus A 2000 [4] = assay: micro serial dilution test; format: cell-based, Staphylococcus aureus; conditions: Staphylococcus aureus, A2000, 18 h, micro serial dilution (in brackets), about 18 hours, 30° C. or 37° C.; read-out: minimal inhibitory concentration (MIC)
Bruc.melit. A 488 = assay: microbe, parasite or virus in culture; format: cell-based; conditions: Brucella melitensis, 24 h, read-out: minimal inhibitory concentration (MIC)
Pseud.aerug. H 10 = assay: agar serial dilution test; format: cell-based; conditions: agar serial dilution, 24 hours, 37° C.; read-out: minimal inhibitory concentration (MIC)
Staph.aureus A 2001 [5] = assay: agar serial dilution test; format: cell-based, Staphylococcus aureus; conditions: Staphylococcus aureus, A2001, 24 h, agar serial dilution, 24 hours, 37° C.; read-out: minimal inhibitory concentration (MIC)
Shig.equir. T 3 = assay: agar serial dilution test; format: cell-based; conditions: 24 h, 37° C., read-out: minimal inhibitory concentration (MIC)
Staph.aureus A 355 [6] = assay: micro serial dilution test; format: cell-based, Staphylococcus aureus; conditions: Staphylococcus aureus, A355; micro serial dilution (in brackets), about 18 hours, 30° C. or 37° C.; penicillinase-producing strain; read-out: minimal inhibitory concentration (MIC)
From the text: Two drops of a stock solution of the test compound (antibiotic) in a known concentration were brought into the first hole of a test plate with 9 numbered holes with a sterile Pasteur pipette. After rinsing this pipette three times with a physiological NaCl-solution, two drops of a stock solution of the test organism in a culture medium were brought in all the holes except for hole 8. In the first hole, the solution of the tested compound had been half diluted, then by stirring the liquid in the first hole and adding two drops of this mixture to the second hole and so on until hole 8, dilutions of the test compound solution were obtained in geometrical progression. The hole 9 contained no antibiotic and served for checking the growth of the testogranism in a blank medium. The test plate was incubated at 30° C. or 37° C. for about 18 hours.
^1 Penicillinase-producing strain

Prot.mirab. L 93 = assay: agar serial dilution test; format: cell-based, Proteus mirabilis; conditions: Proteus mirabilis
Staph.aureus A 355 [7] = assay: agar serial dilution test; conditions: Staphylococcus aureus, A355, 24 h, read-out: minimal inhibitory concentration (MIC), agar serial dilution, 24 hours, 37° C.; penicillinase-producing strain
Salm.typh. R 127 = assay: agar serial dilution test; format: cell-based; conditions: 24 h, 37° C., read-out: minimal inhibitory concentration (MIC)
Prot.mirab. H 3 = assay: agar serial dilution test; format: cell-based, Proteus mirabilis; conditions: Proteus mirabilis
Strep.haem. A 266 = assay: agar serial dilution test; format: cell-based, Streptococcus haemolyticus; conditions: Streptococcus; agar serial dilution, 24 hours, 37° C.; read-out: minimal inhibitory concentration (MIC)
Prot.morg. 2241 = assay: agar serial dilution test; format: cell-based; conditions: 24 h, agar serial dilution, 24 hours, 37° C.; read-out: minimal inhibitory concentration (MIC)
Salm.dubl. P 43 = assay: agar serial dilution test; format: cell-based, Salmonella dublin; conditions: Salmonella enterica, read-out: minimal inhibitory concentration (MIC)
Haem.infl. A 1030 = assay: micro serial dilution test; format: cell-based; conditions: 18 h, micro serial dilution (in brackets), about 18 hours, 30° C. or 37° C.; read-out: minimal inhibitory concentration (MIC)
Past.multo. A 723 = assay: agar serial dilution test; format: cell-based, Pasteurella multocida; conditions: Pasteurella multocida; agar serial dilution, 24 hours, 37° C.; read-out: minimal inhibitory concentration (MIC)
Pseud.aerug. 2396 = assay: agar serial dilution test; format: cell-based; conditions: agar serial dilution, 24 hours, 37° C.; read-out: minimal inhibitory concentration (MIC)
Dipl.pneum. L 54 = assay: agar serial dilution test; format: cell-based, Diplococcus pneumoniae; conditions: Streptococcus pneumoniae; agar serial dilution, 24 hours, 37° C.; read-out: minimal inhibitory concentration (MIC)
[8] = agar serial dilution, 24 hours, 37° C.
[9] = 24 h, read-out: minimal inhibitory concentration (MIC), agar serial dilution, 24 hours, 37° C.
[10] = agar serial dilution, 24 hours, 37° C., read-out: minimal inhibitory concentration (MIC)

SMILES | MIC (Staph.aureus A 2000 [1]) [µg/mL] | MIC (Prot.mirab. A 1200) [µg/mL] | MIC (Kleb.pneum. A 809) [µg/mL] | MIC (Strep. faec. L 80) [µg/mL] | MIC (Bac.Subt.ATCC 6633) [µg/mL] | MIC (Staph.aureus A 321) [µg/mL] | MIC (Staph.aureus A 2001 [2]) [µg/mL] | MIC [3] [µg/mL] | MIC (Esch.coli U 20) [µg/mL] | MIC (Staph.aureus A 2000 [4]) [µg/mL] | MIC (Bruc.melit. A 488) [µg/mL] | MIC (Pseud.aerug. H 10) [µg/mL] | MIC (Staph.aureus A 2001 [5]) [µg/mL] | MIC (Shig.equir. T 3) [µg/mL] | MIC (Staph.aureus A 355 [6]) [µg/mL] | MIC (Staph.aureus A 355 [7]) [µg/mL] | MIC (Salm.typh. R 127) [µg/mL] | MIC (Strep.haem. A 266) [µg/mL] | MIC (Prot.morg. 2241) [µg/mL] | MIC (Haem.infl. A 1030) [µg/mL] | further results
CC(=O)OCC1=C(C(=O)O)N2C(=O)[C@@H](NC(=O)C(C)c3nc(C)no3)[C@H]2SC1 (mixture of isomers) [Example 11I, dl-7-[α-methyl-(3-methyl-1,2,4-oxadiazol-5-yl)-acetamido]-cephalosporanic acid] | 1.5 | 25 | 6 | 75 | 0.12 | 1 | 1.2 | > 100 | 50 | 1.2 | 6 | > 100 | 1.5 | 12.5 | 1.2 | 3 | 25 | 0.25 | > 100 | > 125 | MIC (Prot.rettg. A 821; [8]): 6 µg/mL; MIC (Prot.mirab. L 93; [9]): 12.5 µg/mL; MIC (Prot.mirab. H 3; [9]): 12.5 µg/mL; MIC (Salm.dubl. P 43; 24 h): 12.5 µg/mL; MIC (Past.multo. A 723): 1.5 µg/mL; MIC (Pseud.aerug. 2396): > 100 µg/mL
CCc1noc(C(C)C(=O)N[C@@H]2C(=O)N3C(C(=O)O)=C(COC(C)=O)CS[C@H]23)n1 (mixture of isomers) [Example 11K, dl-7-[α-methyl-(3-ethyl-1,2,4-oxadiazol-5-yl)-acetamido]-cephalosporanic acid] | 1.5 | > 100 | 6 | 100 | 0.25 | 1.5 | 0.9 | > 100 | > 100 | 1.2 | 12.5 | > 100 | 1 | 25 | 0.9 | 1.5 | > 100 | 0.06 | > 100 | 125 | MIC (Prot.rettg. A 821): 12.5 µg/mL; MIC (Prot.mirab. L 93; [9]): 12.5 µg/mL; MIC (Prot.mirab. H 3; [10]): > 100 µg/mL; MIC (Dipl.pneum. L 54): 1 µg/mL; MIC (Salm.dubl. P 43; [8]): 100 µg/mL; MIC (Past.multo. A 723): 1.5 µg/mL; MIC (Pseud.aerug. 2396): > 100 µg/mL
COCc1noc(CC(=O)N[C@@H]2C(=O)N3[C@@H]2SC(C)(C)[C@@H]3C(=O)O)n1 [Compound A, 6-[(3-methoxymethyl-1,2,4-oxadiazol-5-yl)-acetamido]-penicillanic acid] | 6 (≈ 16.2 µM) | 100 (≈ 270 µM) | > 100 | 6 (≈ 16.2 µM) | 0.06 (≈ 0.162 µM) | 0.5 (≈ 1.35 µM) | 3.7 (≈ 9.99 µM) | > 100 | 50 (≈ 135 µM) | 90 (≈ 243 µM) | 0.5 (≈ 1.35 µM) | > 100 | 1.5 (≈ 4.05 µM) | 1.5 (≈ 4.05 µM) | 60 (≈ 162 µM) | 6 (≈ 16.2 µM) | 25 (≈ 67.5 µM) | 0.03 (≈ 0.081 µM) | > 100 | 4 (≈ 10.8 µM) | MIC (Prot.rettg. A 821; [8]): 6 µg/mL (≈ 16.2 µM); MIC (Prot.mirab. L 93; [10]): 12.5 µg/mL (≈ 33.7 µM); MIC (Prot.mirab. H 3; [10]): > 100 µg/mL; MIC (Dipl.pneum. L 54): 0.25 µg/mL (≈ 0.675 µM); MIC (Salm.dubl. P 43; [8]): 12.5 µg/mL (≈ 33.7 µM); MIC (Past.multo. A 723): 1 µg/mL (≈ 2.7 µM); MIC (Pseud.aerug. 2396): > 100 µg/mL
CC(=O)OCC1=C(C(=O)O)N2C(=O)[C@@H](NC(=O)C(c3ccccc3)c3nc(C)no3)[C@H]2SC1 (stereo partly drawn) [Compound B, 7-[α-phenyl-(3-methyl-1,2,4-oxadiazol-5-yl)-acetamido]-3-acetoxymethyl-3-cephem-4-carboxylic acid] | 1.5 (≈ 3.17 µM) | > 100 | 6 (≈ 12.7 µM) | 50 (≈ 106 µM) | 0.25 (≈ 0.529 µM) | 0.5 (≈ 1.06 µM) | 1.2 (≈ 2.54 µM) | > 100 | > 100 | 1.2 (≈ 2.54 µM) | 1.5 (≈ 3.17 µM) | > 100 | 1.5 (≈ 3.17 µM) | > 100 | 1.2 (≈ 2.54 µM) | 1.5 (≈ 3.17 µM) | > 100 | 0.5 (≈ 1.06 µM) | > 100 | 1.2 (≈ 2.54 µM) | MIC (Prot.rettg. A 821; [8]): 3 µg/mL (≈ 6.35 µM); MIC (Prot.mirab. L 93; [10]): 25 µg/mL (≈ 52.9 µM); MIC (Prot.mirab. H 3; [10]): > 100 µg/mL; MIC (Dipl.pneum. L 54): 1 µg/mL (≈ 2.12 µM); MIC (Salm.dubl. P 43; [8]): > 100 µg/mL; MIC (Past.multo. A 723): 0.5 µg/mL (≈ 1.06 µM); MIC (Pseud.aerug. 2396): > 100 µg/mL
CC1=C(C(=O)O)N2C(=O)[C@@H](NC(=O)Cc3nc(Cc4ccccc4)no3)[C@H]2SC1 [Example 7, 7-[(3-benzyl-1,2,4-oxadiazol-5-yl)-acetamido]-desacetoxycephalosporanic acid] | 25 (≈ 60.3 µM) | > 100 | 100 (≈ 241 µM) | 100 (≈ 241 µM) | 3 (≈ 7.24 µM) | 3 (≈ 7.24 µM) | 5 (≈ 12.1 µM) | > 100 | > 100 | 4 (≈ 9.65 µM) | 25 (≈ 60.3 µM) | > 100 | 6 (≈ 14.5 µM) | > 100 | 8 (≈ 19.3 µM) | 100 (≈ 241 µM) | > 100 | 25 (≈ 60.3 µM) | > 100 | 30 (≈ 72.4 µM) | MIC (Prot.rettg. A 821; [8]): > 100 µg/mL; MIC (Prot.mirab. L 93; [10]): > 100 µg/mL; MIC (Prot.mirab. H 3; [10]): > 100 µg/mL; MIC (Dipl.pneum. L 54): 4 µg/mL (≈ 9.65 µM); MIC (Salm.dubl. P 43; [8]): 100 µg/mL (≈ 241 µM); MIC (Past.multo. A 723): 25 µg/mL (≈ 60.3 µM); MIC (Pseud.aerug. 2396): > 100 µg/mL
CC1=C(C(=O)O)N2C(=O)[C@@H](NC(=O)Cc3nc(-c4c(Cl)cccc4Cl)no3)[C@H]2SC1 [Example 11E, 7-{[3-(2,6-dichlorophenyl)-1,2,4-oxadiazol-5-yl]-acetamido}desacetoxycephalosporanic acid] | 0.75 (≈ 1.6 µM) | > 100 | 100 (≈ 213 µM) | 12.5 (≈ 26.6 µM) | 1 (≈ 2.13 µM) | 0.5 (≈ 1.07 µM) | 0.25 (≈ 0.533 µM) | > 100 | > 100 | 3.7 (≈ 7.88 µM) | 50 (≈ 107 µM) | > 100 | 1 (≈ 2.13 µM) | > 100 | 0.25 (≈ 0.533 µM) | 0.75 (≈ 1.6 µM) | > 100 | 0.25 (≈ 0.533 µM) | > 100 | 125 (≈ 266 µM) | MIC (Prot.rettg. A 821; [8]): > 100 µg/mL; MIC (Prot.mirab. L 93; [10]): > 100 µg/mL; MIC (Prot.mirab. H 3; [10]): > 100 µg/mL; MIC (Salm.dubl. P 43; [8]): > 100 µg/mL; MIC (Past.multo. A 723): 25 µg/mL (≈ 53.3 µM); MIC (Pseud.aerug. 2396): > 100 µg/mL
